Experimental findings from US20130123355A1, “Fatty acids and metal ions compositions and uses thereof” (priority 2011, published 2013) are described below.

Assay [1] concerns Patients presenting early symptoms of stroke. Description: Stroke Rehabilitation Assessment of Movement (STREAM). It is filed as in vivo, human. The settings on record: with standard of care. As for the experimental part:
Patients presenting early symptoms of stroke, in addition to being provided standard of care for stroke, are prescribed Mg-DHA or Mg Citrate capsules formulated to provide a daily dose of 150 mg of elemental magnesium or DHA capsules for two weeks when recovery from stroke is assessed.
Patients presenting early symptoms of stroke, in addition to being provided standard of care for stroke, are prescribed Mg-DHA-LysoPC or Mg Citrate capsules prepared and formulated to provide 150 mg of elemental magnesium, or DHA-LysoPC capsules for two weeks when recovery is assessed.
Patients presenting early symptoms of stroke, in addition to being provided standard of care for stroke, are prescribed Mg-EPA or Mg Citrate capsules formulated to provide 150 mg of elemental magnesium, or EPA capsules for two weeks when recovery from stroke is assessed.
Patients presenting early symptoms of stroke, in addition to being provided standard of care for stroke, are prescribed either Zn-DHA or zinc gluconate capsules formulated to provide a daily dosage of 30 mg of elemental Zn, or DHA capsules for two weeks when recovery from stroke is assessed.
Patients presenting early symptoms of stroke, in addition to being provided standard of care for stroke, are prescribed either Zn-DHA-LysoPC or zinc gluconate capsules that provide a daily dosage of 30 mg of elemental Zn, or DHA-LysoPC capsules for two weeks when recovery is assessed.
Patients presenting early symptoms of stroke, in addition to being provided standard of care for stroke, are prescribed either Zn-EPA or zinc gluconate capsules formulated to provide a daily dosage of 30 mg of elemental Zn, or EPA capsules for two weeks when recovery from stroke is assessed.

In assay [2] the test system is Sprague-Dawley rats. Description: Forced Swim Test. To be noted: diet. It is filed as in vivo. The source says:
Sprague-Dawley rats are fed diet supplemented with Mg-DHA, Mg Citrate, or DHA. […] Various established parameters of antidepressant activity including reduced immobility time, increased swimming, and increased climbing behavior are quantitated to assess the antidepressant activity.
Sprague-Dawley rats are fed diet supplemented with Mg-DHA-LysoPC, Mg Citrate, or DHA-lysoPC. […] Various established parameters of antidepressant activity including reduced immobility time, increased swimming, and increased climbing behavior are quantitated to assess the antidepressant activity.
Sprague-Dawley rats are fed diet supplemented with Mg-EPA, Mg Citrate, or EPA. […] Various established parameters of antidepressant activity including reduced immobility time, increased swimming, and increased climbing behavior are quantitated to assess the antidepressant activity.
Sprague-Dawley rats are fed diet supplemented with Zn-DHA, Zinc gluconate, or DHA. On Zn-DHA or Zinc gluconate supplemented diet, rats consume about 1 mg/kg body weight/day of elemental zinc, on a feeding schedule so as to maintain 85% of its free-feeding weight. […] Various established parameters of antidepressant activity including reduced immobility time, increased swimming, and increased climbing behavior are quantitated to assess the antidepressant activity.
Sprague-Dawley rats are fed diet supplemented with Zn-DHA-lysoPC, zinc gluconate, or DHA. On Zn-DHA-lysoPC or zinc gluconate supplemented diet, rats consume about 1 mg/kg body weight/day of elemental zinc, on a feeding schedule so as to maintain 85% of its free-feeding weight. […] Various established parameters of antidepressant activity including reduced immobility time, increased swimming, and increased climbing behavior are quantitated to assess the antidepressant activity.
Sprague-Dawley rats are fed diet supplemented with Zn-EPA, zinc gluconate, or EPA. On Zn-EPA or zinc gluconate supplemented diet, rats consume about 1 mg/kg body weight/day of elemental zinc, on a feeding schedule so as to maintain 85% of its free-feeding weight. […] Various established parameters of antidepressant activity including reduced immobility time, increased swimming, and increased climbing behavior are quantitated to assess the antidepressant activity.
Sprague-Dawley rats are fed diet supplemented with Li-DHA, lithium carbonate, or DHA. […] Various established parameters of antidepressant activity including reduced immobility time, increased swimming, and increased climbing behavior are quantitated to assess the antidepressant activity.
Sprague-Dawley rats are fed diet supplemented with Li-DHA-lysoPC, lithium carbonate, or DHA. […] Various established parameters of antidepressant activity including reduced immobility time, increased swimming, and increased climbing behavior are quantitated to assess the antidepressant activity.
Sprague-Dawley rats are fed diet supplemented with Li-EPA, lithium carbonate, or EPA. […] Various established parameters of antidepressant activity including reduced immobility time, increased swimming, and increased climbing behavior are quantitated to assess the antidepressant activity.

For assay [3], the system named is Patients presenting symptoms of migraine. Description: migraine pain relief on visual analog scale (VAS). It is filed as in vivo, human. To be noted: reviewed after 4 hours. Here is the method: Patients presenting symptoms of migraine are prescribed Zn-DHA or zinc gluconate capsules formulated to provide a daily dosage of 30 mg of elemental zinc. The symptoms of migraine are reviewed after 4 hours. […] For each group of patients, Excedrin is prescribed as rescue medicine.
Patients presenting symptoms of migraine are prescribed Zn-DHA-LysoPC or zinc gluconate formulated to provide a daily dosage of 30 mg of elemental zinc. The symptoms of migraine are reviewed after 4 hours. […] For each group of patients, Excedrin is prescribed as rescue medicine.
Patients presenting symptoms of migraine are prescribed Zn-EPA capsules formulated to provide a daily dosage of 30 mg of elemental Zn. The symptoms of migraine are reviewed after 4 hours. […] For each group of patients, Excedrin is prescribed as rescue medicine.

Assay [4] concerns Patients presenting symptoms of depression. The assay can be described thus: Hamilton Depression Rating scale and Beck Depression Inventory in depression. It is filed as in vivo, human. The settings on record: with standard of care. Here is the method:
Patients presenting symptoms of depression, in addition to being provided standard of care for depression, are prescribed Mg-DHA or Mg Citrate capsules formulated to provide 150 mg of elemental magnesium, or DHA capsules for two weeks when recovery from depression is assessed.
Patients presenting symptoms of depression, in addition to being provided standard of care for depression, are prescribed Mg-DHA-LysoPC or Mg Citrate capsules formulated to provide 150 mg of elemental magnesium, or DHA-LysoPC capsules for two weeks when recovery from depression is assessed.
Patients presenting symptoms of depression, in addition to being provided standard of care for depression, are prescribed Mg-EPA or Mg Citrate capsules formulated to provide 150 mg of elemental magnesium, or EPA capsules for two weeks when recovery from depression is assessed.
Patients presenting symptoms of depression, in addition to being provided standard of care for depression, are prescribed Zn-DHA or zinc gluconate capsules formulated to provide a daily dosage of 30 mg of elemental zinc, or DHA capsules for two weeks when recovery from depression is assessed.
Patients presenting symptoms of depression, in addition to being provided standard of care for depression, are prescribed Zn-DHA-LysoPC or zinc gluconate capsules formulated to provide a daily dosage of 30 mg of elemental zinc, or DHA-LysoPC capsules for two weeks when recovery from depression is assessed.
Patients presenting symptoms of depression, in addition to being provided standard of care for depression, are prescribed Zn-EPA or zinc gluconate capsules that provide a daily dosage of 30 mg of elemental Zn, or EPA capsules for two weeks when recovery from depression is assessed.

[5] abbreviates: 150 mg elemental magnesium daily for two weeks.
Setting [6] is: about 50 mg/kg/day elemental Mg, compared with the fatty acid alone or Mg Citrate.
Setting [7] is: 150 mg elemental magnesium daily, compared with the fatty acid alone or Mg Citrate.
The mark [8] stands for this setting: 150 mg elemental magnesium for two weeks.
Setting [9] is: 30 mg elemental Zn daily for two weeks, compared with the fatty acid alone or zinc gluconate.
Setting [10] is: about 1 mg/kg body weight/day elemental zinc, compared with the fatty acid alone or zinc gluconate.
The mark [11] stands for this setting: 30 mg elemental zinc daily, compared with the fatty acid alone or zinc gluconate.
The mark [12] stands for this setting: 30 mg elemental zinc daily for two weeks, compared with the fatty acid alone or zinc gluconate.

SMILES strings stand for the structures.

Regarding `CC/C=C\C/C=C\C/C=C\C/C=C\C/C=C\C/C=C\CCC(=O)[O-].CC/C=C\C/C=C\C/C=C\C/C=C\C/C=C\C/C=C\CCC(=O)[O-].[Mg+2]` [Mg-DHA], the “STREAM scores, recovery from stroke” value in assay [1] (setting [5]) is reported as “statistically significant improvement”. For the same compound, in assay [2] (setting [6]), the immobility time result is recorded as “reduction”; the “swimming and climbing behavior” value is “significant increase”. Moreover, the “pain relief on a visual analog scale (VAS)” value in assay [3] (setting [7]) was “significant pain relief”. In addition, in assay [4] (setting [8]), the “Hamilton Depression Rating scale and Beck Depression Inventory scores” value is given as “statistically significant improvement”.
Consider `CC/C=C\C/C=C\C/C=C\C/C=C\C/C=C\CCCC(=O)[O-].CC/C=C\C/C=C\C/C=C\C/C=C\C/C=C\CCCC(=O)[O-].[Mg+2]` [Mg-EPA], for which the “STREAM scores, recovery from stroke” value in assay [1] (setting [5]) is “statistically significant improvement”. In assay [2] (setting [6]), the immobility time entry is given as “reduction”; the “swimming and climbing behavior” value was “significant increase”. Moreover, the “pain relief on a visual analog scale (VAS)” value in assay [3] (setting [7]) was “significant pain relief”. Further, the “Hamilton Depression Rating scale and Beck Depression Inventory scores” value in assay [4] (setting [8]) is recorded as “statistically significant improvement”.
As for `CC/C=C\C/C=C\C/C=C\C/C=C\C/C=C\C/C=C\CCC(=O)[O-].CC/C=C\C/C=C\C/C=C\C/C=C\C/C=C\C/C=C\CCC(=O)[O-].[Zn+2]` [Zn-DHA], the “STREAM scores, recovery from stroke” value in assay [1] (setting [9]) was “statistically significant improvement”. In addition, in assay [2] (setting [10]), the immobility time entry is given as “reduction”; the “swimming and climbing behavior” value is recorded as “significant increase”. Besides, the “pain relief on a visual analog scale (VAS)” value in assay [3] (setting [11]) was “significant pain relief”. In addition, the “Hamilton Depression Rating scale and Beck Depression Inventory scores” value in assay [4] (setting [12]) is listed as “statistically significant improvement”.
With `CC/C=C\C/C=C\C/C=C\C/C=C\C/C=C\CCCC(=O)[O-].CC/C=C\C/C=C\C/C=C\C/C=C\C/C=C\CCCC(=O)[O-].[Zn+2]` [Zn-EPA], the “STREAM scores, recovery from stroke” value in assay [1] (setting [9]) is reported as “statistically significant improvement”. In assay [2] (setting [10]), the immobility time entry is “reduction”; the “swimming and climbing behavior” value was “significant increase”. Besides, the “pain relief on a visual analog scale (VAS)” value in assay [3] (setting [11]) is “significant pain relief”. In addition, the “Hamilton Depression Rating scale and Beck Depression Inventory scores” value in assay [4] (setting [12]) is on record as “statistically significant improvement”.
